Test results published in patent US11427605B2, “Crystalline forms of 5-chloro-N4-[-2-(dimethylphosphoryl) phenyl]-N2-{2-methoxy-4-[4-(4-methylpiperazin-1-yl) piperidin-1-yl] phenyl} pyrimidine-2,4-diamine” (ARIAD Pharmaceuticals, Inc., priority 2014, dated 2022).
In brackets after ≈: the same amount, converted by molar mass. Read-outs that look alike come from different tables or passages of the source.

Key:
[1] = Intrinsic dissolution rate (IDR); type: physicochemical
Description: For measuring the intrinsic dissolution rate (IDR), the starting material was tableted using a mini-IDR compression system (pION/Heath Scientific). For preparation of the tablets, approximately 11 mg of material was pressed in the cylindrical hole of a passivated stainless steel die, to a uniform, flat surface, with an exposed area of 0.072 cm^2. The pressure applied was approximately 50 bar for 3-5 min. The sample die was inserted in a cylindrical Teflon rotating disk carrier containing an embedded magnetic stirring bar at its base. The die/stirrer assembly was placed in a flat bottomed glass vial, ready for dissolution analysis.
The dissolution rate was measured in 20 mL of solvent (medium) and the path length of the UV meter was 2 mm. Applied stirring speed during measurement was 100 rpm. Measurements were performed at 20° C. and 37° C.
In the first series, the IDR of Forms A and B were determined in monoplicate. […] In FIGS. 30-37, the IDRs are plotted for comparison between the forms and the same medium or between various media and the same form. The IDR of each of Forms A and B in the various media increases with increasingly acidic media (see FIGS. 34-37).
In several cases, the results were counter-intuitive. […] The results of these additional experiments are plotted in FIGS. 38-42.

physchem [2] = details: thermodynamic from solid
physchem [3] = details: thermodynamic from solid; for solubility at 24 h: Solub
Description: (§1) For each medium, a standard 1.8 mL screw cap vial was charged with circa 40 mg of the starting material, 400 μl of solvent and a magnetic stirring bar (in the cases of chloroform and dichloromethane 200 μl of solvent were used). The vials were subsequently closed and equilibrated at the corresponding temperature for 24 h while stirring. The liquid part was retrieved with a syringe and filtered (0.5 micron filter); the isolated mother liquors were diluted to two dilutions selected according to the calibration curve. Quantities of the API in the diluted solutions were determined via HPLC analysis (DAD). […] Subsequently, the separated solids were measured wet by XRPD to confirm the solid form of which the solubility was measured.

Compression tests = type: physicochemical; details: 3 and 6 ton/cm^2 for one minute
Description: Compression tests were performed on brigatinib Form A in order to determine whether pressure-induced phase transformations or loss of crystallinity occurred. The press used was an Atlas Manual 25 Ton Hydraulic Press (from SPECAC). Experiments were carried out at 3 and 6 ton/cm^2 for one minute in each case.

[4] = 24 h
Description: as §1

[5] = slurry in Water, 25° C.
Description: In a second set of slurry experiments, the same amounts of Form A and Form B were weighed into 1.8 mL vials, and charged with a stirring bar. After addition of the solvent, the slurries were placed at 25° C. and 50° C., under stirring. Material from the slurries was sampled at the time points of 2, 4 and 14 days (sampling from the same vial per solvent and per temperature). These materials were analyzed wet by XRPD and digital imaging.

[6] = Dissolution rate from a powdered sample in water; type: physicochemical; details: powder, 37° C.
Description: For determining the dissolution rate from a powdered sample, approximately 5 mg of brigatinib (Form A or B) was weighed into a 5 mL dissolution vial and the dissolution probe was inserted into the vial. Subsequently, 4 mL of water was added at the same time the measurement was initiated. The concentration was recorded for 20 h.
For measuring the dissolution rate from powder, the test was only performed in water for Forms A and B at 37° C., as the solubilities of Forms A and B were […] enough to permit detection.

[7] = ground for 5 hours
Description: Grinding experiments were performed to obtain amorphous brigatinib. […] In a mechanical stress test via grinding, a sample of Form A was ground for 2, 3, 4 and 5 hours. Recovered solids were analyzed by XRPD and HPLC.
Grinding. Two grinding experiments were performed on samples of Form A with two different durations (30 and 60 min) at a frequency of 30 Hz. […] Mechanical stress via grinding experiments were also performed, with grinding times of 2, 3, 4, and 5 hours.

[8] = Dynamic vapor sorption (DVS); type: physicochemical
Description: In a […] vapor sorption (DVS) experiment with Form A, the sample was first dried at 0% RH for 6 hours. Then, the relative humidity was cycled from 5% to 95% RH (sorption), then to 5% RH (desorption) at a constant temperature of 25° C., with a hold time of 60 minutes per step.
In three DVS experiments, the relative humidity was varied as follows:
Expt. 4: 0% for 6 h→5% for 1 h→15% for 1 h→25-85% gradient over 2 h→95 for 5 h RH

[9] = 25 to 200° C.
Description: High resolution X-ray powder diffraction patterns disclosed herein were collected on a D8 Advance system in the Brag-Brentano geometry equipped with LynxEye solid state detector. The radiation used for collecting the data was CuKα1 (λ=1.54056 Å) monochromatized by germanium crystal. The patterns were collected in the range of 4-41.5°2θ, with a step in the range of 0.016 °2θ without further processing. All patterns were taken at room temperature, approximately 295 K. The material was placed in a boron glass capillary of 0.3 mm diameter. For variable humidity and variable temperature experiments disclosed herein, an ANSYCO HT chamber was used. The material was placed on a fixed sample holder that was mounted inside the chamber. The humidity was applied locally and varied from 10% to 80% (dew point). The temperature variation rate was 10° C./min.
Data was collected for Forms A, B, C, and D almost immediately after reaching the target temperature (within approximately 10 min).
For Form A, the temperatures used in the experiment were 25, 40, 60, 100, 120, 140, 150, 160, 170, 180, 190, and 200° C. Data collection lasted 20 min per temperature and the stabilization time in between was 10 min.
For Form B, the temperatures used in the experiment were 25, 40, 60, 100, 120, 140, 150, 155, 160, 165, 170, 180, and 190° C. Data collection lasted 45 min per temperature and the stabilization time in between was 10 min.
For Form C, the temperatures used in the experiment were 25, 40, 60, 70, 80, 100, 120, 140, 150, 155, 160, 165, 170, 175, 180, 190, and 200° C. Data collection lasted 40 min per temperature and the stabilization time in between was 10 min.
For Form D, the temperatures used in the experiment were 25, 35, 45, 55, 65, 75, 85, 100, 120, 140, 150, 155, 160, 165, 170, 175, 180, 190, and 200° C. Data collection lasted 10 min for temperatures 25-85° C. with a stabilization time of 1 min, and 40 min for temperatures 100-25° C. with a stabilization time of 10 min.

Variable humidity XRPD = type: physicochemical
Description: The temperature variation rate was 10° C./min.
The relative humidity was increased from the starting amount, brought up to the maximum, then dried back to the minimum value. The data collection time was 41 min at each step, time starting after equilibration of the relative humidity.
The peaks shifts were reversible at RH of about 30%. A sample of Form A was then exposed to 80% RH for 15 h. The peaks shifts had occurred after 90 min, and the extent of the shifts remained constant throughout the exposure at 80% RH for 15 h. Upon return to 10% RH, the peaks shifted to their original position. To investigate the amount of water adsorbed, a new sample of Form A was exposed for 2 h at 80% and a TGMS of this sample was measured.
For Form B, the relative humidity was measured at 30° C. The RH % values measured were 10, 30, 50, 60, 65, 70, 75, and 80%. […] At 80% RH the conversion to Form C was completed. Upon desorption, Form C dehydrates to Form B, starting at about 30% RH. At 10% RH the conversion to Form B was completed.
For Form C, a hydrate, the relative humidity was measured at 30° C. The experiment was performed starting at the maximum RH and dehydrated, then rehydrated back up to the maximum value. The RH % values measured were 10, 15, 20, 25, 30, 35, 40, 60, and 80%. Upon desorption, Form C dehydrated to Form B, starting at about 25% RH. At 10% RH, the conversion to Form B was complete. Upon sorption, Form B converted to Form C, starting at about 60% RH. At 80% RH the conversion to Form C was complete. The results are consistent with the corresponding experiments of Form B.
For Form D, a hydrate, the relative humidity was measured at 30° C. The experiment was performed starting at the maximum RH and dehydrated, then rehydrated back up to the maximum value. The RH % values measured were 10, 15, 20, 25, 30, 35, 40, 60, and 80%. […] Form C dehydrated to Form B, starting at about 20% RH. At 10% RH, the conversion to Form B was complete. Upon sorption, Form B converted to Form C, starting at about 40% RH. At 80% RH, the conversion to Form C was complete.

[10] = 37 °C, pH 1, simulated gastric fluid

With COc1cc(N2CCC(N3CCN(C)CC3)CC2)ccc1Nc1ncc(Cl)c(Nc2ccccc2P(C)(C)=O)n1 [Form A, brigatinib] the “Amount that could be dissolved in the stomach together with a 200 ml glass of water” value ([1]; numbers are only indicative) was “about 50 mg”, the “Concentration reached in IDR measurement” value ([1]; pH 1.0 and SGF, within 5 min) was ~250 µg/mL and the “Solid form stability when slurried (IDR experiments)” value ([1]; water, SGF, and pH 1.0 aqueous buffer) was “remains stable”. It also gave a solubility (physchem [2]; pH 1.7, simulated gastric fluid) of 177 mg/mL (≈ 303 mM), a solubility (physchem [2]; pH 2.4, aqueous buffer) of 329 mg/mL (≈ 563 mM) and a solubility (physchem [2]; pH 3.6, aqueous buffer) of 173 mg/mL (≈ 296 mM). It also gave a solubility (physchem [2]; pH 6.2, aqueous buffer) of 8 mg/mL (≈ 13.7 mM), a solubility (physchem [2]; pH 7.2, aqueous buffer) of 11 mg/mL (≈ 18.8 mM) and a solubility at 24 h (physchem [3]; 25 °C, pH 1, simulated gastric fluid) of 60.4 ± 2.9 mg/mL (≈ 103 mM). It also gave a solubility at 24 h (physchem [3]; 25 °C, pH 4.5, aqueous buffer) of 24.4 ± 1.2 mg/mL (≈ 41.8 mM), a solubility at 24 h (physchem [3]; 25 °C, pH 6.8, aqueous buffer) of 8.6 ± 1.4 mg/mL (≈ 14.7 mM) and a solubility at 24 h (physchem [3]; 25 °C, water) of 0.11 mg/mL (≈ 0.188 mM). It also gave a solubility at 24 h (physchem [3]; [10]) of 70.6 ± 1.5 mg/mL (≈ 121 mM), a solubility (physchem [3]; [10]) of 70 mg/mL (≈ 120 mM) and a solubility at 24 h (physchem [3]; 37 °C, pH 4.5, aqueous buffer) of 26 mg/mL (≈ 44.5 mM). For the same compound, the solubility (physchem [3]; 37 °C, pH 4.5, aqueous buffer) was 26 mg/mL (≈ 44.5 mM), the solubility (physchem [3]; 37 °C, pH 6.5, aqueous buffer) was 6 mg/mL (≈ 10.3 mM) and the solubility at 24 h (physchem [3]; 37 °C, pH 6.8, aqueous buffer) was 6.2 ± 0.1 mg/mL (≈ 10.6 mM). The solubility at 24 h (physchem [3]; 37 °C, simulated gastric fluid) was 51.7 ± 0.6 mg/mL (≈ 88.5 mM), the solubility (physchem [3]; simulated gastric fluid) was 52 mg/mL (≈ 89 mM) and the “Phase transformation under pressure (XRPD)” value (Compression tests) was “no phase transitions or peak shifts”. For the same compound, the “Purity by HPLC after compression” value (Compression tests) was “comparable to that of the starting material”, the Solub [4] was 0.1 ± 0.0 mg/mL and the “solid form (XRPD, analyzed wet)” value ([5]; 2 Days) was “A + D”. The “solid form (XRPD, analyzed wet)” value ([5]; 4 days) was “A + D”, the “Concentration at 10 min” value [6] was 70 µg/mL and the “Concentration at 20 h” value [6] was 140 µg/mL. The “Solid state after grinding (XRPD)” value [7] was “almost completely amorphous”, the “Hygroscopicity (DVS)” value ([8]; 5% to 95% RH, then to 5% RH, 25° C., 60 minutes per step) was “not hygroscopic” and the Hygroscopicity ([8]; general statement) was “not hygroscopic”. The “Phase transformation on heating (VT-XRPD)” value [9] was “did not reveal any phase transformation”, the “Phase transition with humidity (VH-XRPD)” value (Variable humidity XRPD; 30 and 60° C.) was “did not show any phase transition” and the “Mass loss by TGMS after humidity exposure (water adsorbed)” value (Variable humidity XRPD; exposed for 2 h at 80% RH) was 0.35%. For the same compound, the “Water molecules adsorbed after humidity exposure” value (Variable humidity XRPD; exposed for 2 h at 80% RH) was 0.1 water molecules.
